Assay results: US6362212B1, “Oxime derivative and bactericide containing the same as active ingredient” (Shionogi & Company, Ltd., priority 1994, dated 2002)

How the values were obtained:
Format in all cases: in vivo
[1] = system: Pyricularia oryzae; conditions: foliage spray on rice seedlings (cv. […]), number of lesions six days after the inoculation
[2] = system: Sphaerotheca fuliginea; experiment: Controlling effect on Sphaerotheca fuliginea by foliage application (pot experiment); conditions: foliage spray on cucumber (cv. TSUKUBASHIROIBO) first leaves, infected area after 10 days in greenhouse at 20° C.
Description: The following Test Examples illustrate the effects of the fungicide of the present invention. (I. Controlling effects on various plant diseases by foliage application (pot experiment)) A test compound was dissolved in a small amount of N,N-dimethylformamide, and the solution was diluted to a given concentration with distilled water containing a spreader. Thus, a liquid sample to be tested was prepared. The liquid sample was sprayed to test plants, and 24 hours thereafter, pathogens were inoculated by the method described below. […] Seeds of cucumber ([…]) were sown in plastic cups (each 9 cm in diameter), followed by cultivation for 2 to 3 weeks. The liquid test sample in the form of a solution or suspension was sprayed on the surface of their first leaves. The pathogen was inoculated to the leaves by spraying a conidia suspension of Sphaerotheca fuliginea which had been cultured on the cucumber leaves. After the inoculation, the plants were kept in a greenhouse at 20° C. for 10 days. Then, the infected area on the leaf was observed, and the percent control was calculated.

[3] = system: Erysiphe graminis f. sp. tritici; experiment: Controlling effect on Erysiphe graminis f. sp. tritici by foliage application (pot experiment); conditions: foliage spray on wheat (cv. NORIN No. 61) seedlings, infected area after 10 days in greenhouse at 20° C.
Description: The following Test Examples illustrate the effects of the fungicide of the present invention. (I. Controlling effects on various plant diseases by foliage application (pot experiment)) A test compound was dissolved in a small amount of N,N-dimethylformamide, and the solution was diluted to a given concentration with distilled water containing a spreader. Thus, a liquid sample to be tested was prepared. The liquid sample was sprayed to test plants, and 24 hours thereafter, pathogens were inoculated by the method described below. […] The seeds of wheat (cv.: NORIN No. 61) were sown in plastic cups (each 9 cm in diameter), followed by cultivation for 2 to 3 weeks. The test compound in the form of a solution or suspension was sprayed to the seedlings, and conidia of Erysiphe graminis f. sp. tritici cultured on wheat leaves were dropped on the test plants to inoculate the plants with the pathogen. After the inoculation, the plants were kept in a greenhouse at 20° C. for 10 days. The infected area on the leaf was observed, and the percent control was calculated.

Structure (SMILES): CON=C(c1ccon1)c1ccccc1COc1cccc(C(F)(F)F)c1 (mixture of isomers) [compound 322]
- Controlling effect on PYricularia orYzae by foliage application at 500 ppm (percent control) [1]: 70 percent control
- Controlling effect on Sphaerotheca fuliginea by foliage application at 500 ppm (percent control) [2]: 100 percent control
- Controlling effect on ErYsiphe graminis f. sp. tritici by foliage application at 500 ppm (percent control) [3]: 70 percent control

Structure (SMILES): CON=C(c1noc(C)n1)c1ccccc1COc1ccccc1C [Compound No. 912]
- Controlling effect on PYricularia orYzae by foliage application at 500 ppm (percent control) [1]: 70 percent control
- Controlling effect on Sphaerotheca fuliginea by foliage application at 500 ppm (percent control) [2]: 100 percent control
- Controlling effect on ErYsiphe graminis f. sp. tritici by foliage application at 500 ppm (percent control) [3]: 90 percent control

Structure (SMILES): CCON=C(c1ccccc1COc1ccccc1)n1cccn1 [compound 295]
- Controlling effect on PYricularia orYzae by foliage application at 500 ppm (percent control) [1]: 90 percent control
- Controlling effect on ErYsiphe graminis f. sp. tritici by foliage application at 500 ppm (percent control) [3]: 90 percent control

Structure (SMILES): CON=C(c1ncno1)c1ccccc1COc1ccccc1 [compound 1581]
- Controlling effect on PYricularia orYzae by foliage application at 500 ppm (percent control) [1]: 70 percent control
- Controlling effect on Sphaerotheca fuliginea by foliage application at 500 ppm (percent control) [2]: 70 percent control

Structure (SMILES): CON=C(C1=NCCO1)c1ccccc1COc1ccccc1C [compound 1310]
- Controlling effect on PYricularia orYzae by foliage application at 500 ppm (percent control) [1]: 70 percent control
- Controlling effect on Sphaerotheca fuliginea by foliage application at 500 ppm (percent control) [2]: 90 percent control
- Controlling effect on ErYsiphe graminis f. sp. tritici by foliage application at 500 ppm (percent control) [3]: 90 percent control

Structure (SMILES): CON=C(c1ccccc1Oc1ccccc1)n1cccn1 [compound 300]
- Controlling effect on PYricularia orYzae by foliage application at 500 ppm (percent control) [1]: 70 percent control
- Controlling effect on Sphaerotheca fuliginea by foliage application at 500 ppm (percent control) [2]: 70 percent control

Structure (SMILES): CON=C(c1ccccc1COc1ccccc1)n1ccnc1C [compound 241]
- Controlling effect on PYricularia orYzae by foliage application at 500 ppm (percent control) [1]: 70 percent control

Structure (SMILES): CON=C(c1ccccc1COc1ccc(C)cc1)c1nccn1C (single isomer, unassigned) [114A]
- Controlling effect on PYricularia orYzae by foliage application at 500 ppm (percent control) [1]: 90 percent control
- Controlling effect on Sphaerotheca fuliginea by foliage application at 500 ppm (percent control) [2]: 100 percent control
- Controlling effect on ErYsiphe graminis f. sp. tritici by foliage application at 500 ppm (percent control) [3]: 90 percent control

Structure (SMILES): CON=C(C1=NCCN1)c1ccccc1COc1cccc(C)c1 (mixture of isomers) [compound 1461]
- Controlling effect on PYricularia orYzae by foliage application at 500 ppm (percent control) [1]: 70 percent control

Structure (SMILES): O=C1OCc2c(Cl)c(Cl)c(Cl)c(Cl)c21 [Fthalide, reference compound]
- Controlling effect on PYricularia orYzae by foliage application at 500 ppm (percent control) [1]: 97 percent control

Structure (SMILES): CON=C(C1=NCCN1)c1ccccc1COc1ccccc1C [compound 1460]
- Controlling effect on PYricularia orYzae by foliage application at 500 ppm (percent control) [1]: 90 percent control
- Controlling effect on ErYsiphe graminis f. sp. tritici by foliage application at 500 ppm (percent control) [3]: 90 percent control

Structure (SMILES): CON=C(c1ccccc1COc1ccc(Cl)cc1)n1cccn1 [compound 287]
- Controlling effect on PYricularia orYzae by foliage application at 500 ppm (percent control) [1]: 90 percent control

Structure (SMILES): CON=C(c1ccccc1CON=C(C)c1ccccc1)n1ccnc1 [compound 3041]
- Controlling effect on PYricularia orYzae by foliage application at 500 ppm (percent control) [1]: 90 percent control
- Controlling effect on Sphaerotheca fuliginea by foliage application at 500 ppm (percent control) [2]: 97 percent control

Structure (SMILES): CON=C(c1ccccc1COc1ccccc1)n1cncn1 [compound 261]
- Controlling effect on PYricularia orYzae by foliage application at 500 ppm (percent control) [1]: 70 percent control
- Controlling effect on Sphaerotheca fuliginea by foliage application at 500 ppm (percent control) [2]: 97 percent control
- Controlling effect on ErYsiphe graminis f. sp. tritici by foliage application at 500 ppm (percent control) [3]: 97 percent control

Structure (SMILES): CCON=C(c1ccon1)c1ccccc1COc1cc(C)ccc1C (mixture of isomers) [compound 1674]
- Controlling effect on PYricularia orYzae by foliage application at 500 ppm (percent control) [1]: 70 percent control
- Controlling effect on Sphaerotheca fuliginea by foliage application at 500 ppm (percent control) [2]: 70 percent control
- Controlling effect on ErYsiphe graminis f. sp. tritici by foliage application at 500 ppm (percent control) [3]: 70 percent control

Structure (SMILES): CON=C(c1ccccc1COc1ccc(Cl)cc1)c1nccn1C (single isomer, unassigned) [107A]
- Controlling effect on PYricularia orYzae by foliage application at 500 ppm (percent control) [1]: 90 percent control
- Controlling effect on Sphaerotheca fuliginea by foliage application at 500 ppm (percent control) [2]: 100 percent control
- Controlling effect on ErYsiphe graminis f. sp. tritici by foliage application at 500 ppm (percent control) [3]: 70 percent control

Structure (SMILES): CON=C(c1ccccc1COc1cc(C)ccc1C)c1ccnn1C (single isomer, unassigned) [1554A]
- Controlling effect on PYricularia orYzae by foliage application at 500 ppm (percent control) [1]: 70 percent control
- Controlling effect on ErYsiphe graminis f. sp. tritici by foliage application at 500 ppm (percent control) [3]: 70 percent control

Structure (SMILES): CON=C(c1ccccc1COc1cc(C)ccc1C)n1ccnc1 [Compound No. 39]
- Controlling effect on PYricularia orYzae by foliage application at 500 ppm (percent control) [1]: 70 percent control
- Controlling effect on Sphaerotheca fuliginea by foliage application at 500 ppm (percent control) [2]: 100 percent control

Structure (SMILES): CON=C(c1ccccc1COc1ccccc1Cl)n1cnc(C)c1 [compound 225]
- Controlling effect on PYricularia orYzae by foliage application at 500 ppm (percent control) [1]: 70 percent control

Structure (SMILES): CON=C(c1ncon1)c1ccccc1COc1cc(C)ccc1C (single isomer, unassigned) [836B]
- Controlling effect on Sphaerotheca fuliginea by foliage application at 500 ppm (percent control) [2]: 100 percent control
- Controlling effect on ErYsiphe graminis f. sp. tritici by foliage application at 500 ppm (percent control) [3]: 97 percent control

Structure (SMILES): CON=C(c1cnco1)c1ccccc1Oc1ccccc1 [compound 1735]
- Controlling effect on Sphaerotheca fuliginea by foliage application at 500 ppm (percent control) [2]: 100 percent control
- Controlling effect on ErYsiphe graminis f. sp. tritici by foliage application at 500 ppm (percent control) [3]: 97 percent control

Structure (SMILES): CON=C(c1ccccc1COc1cccc(Cl)c1)n1cnc(C)c1 [compound 226]
- Controlling effect on PYricularia orYzae by foliage application at 500 ppm (percent control) [1]: 70 percent control
- Controlling effect on Sphaerotheca fuliginea by foliage application at 500 ppm (percent control) [2]: 70 percent control
- Controlling effect on ErYsiphe graminis f. sp. tritici by foliage application at 500 ppm (percent control) [3]: 70 percent control

Structure (SMILES): CON=C(c1ccccc1COc1ccccc1OC)c1nccn1C (single isomer, unassigned) [118B]
- Controlling effect on PYricularia orYzae by foliage application at 500 ppm (percent control) [1]: 70 percent control

Structure (SMILES): CON=C(c1ccccc1COc1ccccc1)n1cccn1 [compound 281]
- Controlling effect on PYricularia orYzae by foliage application at 500 ppm (percent control) [1]: 70 percent control
- Controlling effect on ErYsiphe graminis f. sp. tritici by foliage application at 500 ppm (percent control) [3]: 90 percent control

Structure (SMILES): CON=C(c1ccccc1COc1ccc(Cl)cc1)n1cnc(C)c1 [Compound No. 227]
- Controlling effect on Sphaerotheca fuliginea by foliage application at 500 ppm (percent control) [2]: 97 percent control
- Controlling effect on ErYsiphe graminis f. sp. tritici by foliage application at 500 ppm (percent control) [3]: 70 percent control

Structure (SMILES): CON=C(c1ccccc1COc1ccccc1)n1cnc(C)c1 [compound 221]
- Controlling effect on PYricularia orYzae by foliage application at 500 ppm (percent control) [1]: 70 percent control
- Controlling effect on Sphaerotheca fuliginea by foliage application at 500 ppm (percent control) [2]: 97 percent control
- Controlling effect on ErYsiphe graminis f. sp. tritici by foliage application at 500 ppm (percent control) [3]: 70 percent control

Structure (SMILES): CON=C(C1=NCCN1C)c1ccccc1Oc1ccccc1 (mixture of isomers) [compound 1161]
- Controlling effect on Sphaerotheca fuliginea by foliage application at 500 ppm (percent control) [2]: 70 percent control
- Controlling effect on ErYsiphe graminis f. sp. tritici by foliage application at 500 ppm (percent control) [3]: 90 percent control

Structure (SMILES): CON=C(c1ncon1)c1ccccc1COc1ccccc1C [Compound No. 812]
- Controlling effect on PYricularia orYzae by foliage application at 500 ppm (percent control) [1]: 70 percent control
- Controlling effect on Sphaerotheca fuliginea by foliage application at 500 ppm (percent control) [2]: 100 percent control
- Controlling effect on ErYsiphe graminis f. sp. tritici by foliage application at 500 ppm (percent control) [3]: 100 percent control

Structure (SMILES): CON=C(C1=NCCN1C)c1ccccc1COc1ccccc1C(F)(F)F [compound 1121]
- Controlling effect on Sphaerotheca fuliginea by foliage application at 500 ppm (percent control) [2]: 100 percent control
- Controlling effect on ErYsiphe graminis f. sp. tritici by foliage application at 500 ppm (percent control) [3]: 90 percent control

Structure (SMILES): CON=C(c1ccccc1COc1cccc(Cl)c1)n1cncn1 [compound 266]
- Controlling effect on PYricularia orYzae by foliage application at 500 ppm (percent control) [1]: 90 percent control
- Controlling effect on Sphaerotheca fuliginea by foliage application at 500 ppm (percent control) [2]: 97 percent control
- Controlling effect on ErYsiphe graminis f. sp. tritici by foliage application at 500 ppm (percent control) [3]: 97 percent control

Structure (SMILES): CON=C(c1ccccc1COc1ccc(Cl)cc1C)c1nccn1C (single isomer, unassigned) [141B]
- Controlling effect on PYricularia orYzae by foliage application at 500 ppm (percent control) [1]: 70 percent control
- Controlling effect on Sphaerotheca fuliginea by foliage application at 500 ppm (percent control) [2]: 100 percent control

Structure (SMILES): CON=C(C1=NCCO1)c1ccccc1Oc1ccccc1 (single isomer, unassigned) [1341A]
- Controlling effect on Sphaerotheca fuliginea by foliage application at 500 ppm (percent control) [2]: 70 percent control
- Controlling effect on ErYsiphe graminis f. sp. tritici by foliage application at 500 ppm (percent control) [3]: 90 percent control

Structure (SMILES): CON=C(c1ccco1)c1ccccc1COc1cc(C)ccc1C (single isomer, unassigned) [1634A]
- Controlling effect on Sphaerotheca fuliginea by foliage application at 500 ppm (percent control) [2]: 100 percent control
- Controlling effect on ErYsiphe graminis f. sp. tritici by foliage application at 500 ppm (percent control) [3]: 97 percent control
